Measurements taken from US4419348A, “Anthracycline glycoside compositions, their use and preparation” (priority 1981, dated 1983).
“Also recorded” adds a separate entry of the source. Structures can show the parent of a compound that is named as a salt.

Columns and labels:
[1] = Electron microscopy of cardiac tissue (cardiotoxicity); type: in vivo, DBA/2 mice; conditions: 15 mg/kg i.v.; day three, five and seven; listed as free Adriamycin, hydrochloride
Protocol: To determine whether the reduced cardiac uptake of Adriamycin in cardiolipin complex encapsulated liposomes prevented cardiotoxicity, electron microscope studies of this organ were performed. DBA/2 mice were injected i.v. with free drug or drug entrapped in cardiolipin complex encapsulated liposomes at a dose of 15 mg/kg. Three mice in each group were sacrificed by cervical dislocation on day three, five and seven and hearts were immediately removed and placed in physiological saline. The apex of the left ventricle with part of the septum was dissected out and minced into one cubic mm blocks and fixed in 2.5% glutaraldehyde buffered with 0.1 M cacodylate, pH 7.2 for two hours at room temperature. The specimens were rinsed in buffer, osmicated in Bennett and Luft's collidin buffered osmium tetroxide, dehydrated in graded ethanols and acetone, and embedded in Epon. For electron microscopy, preliminary 1 μm Epon sections were stained with alkaline toluidine blue and appropriate areas were chosen for ultrathin sectioning, following which random sections were taken on 200 mesh copper grids and stained with uranyl acetate and lead citrate. A JEOL 100 S Electron microscope at an accelerating voltage of 80 KeV was utilized for viewing the sections.

[2] = tested on: murine P388 ascitic leukemia; assay: Antitumor activity against P388 ascitic leukemia, survival; type: in vivo, DBA/2 mice; conditions: 4 mg/kg i.p., 24 hours after 1×10^5 P388 cells i.p.
Protocol: To determine whether encapsulation of Adriamycin cardiolipin complex into liposomes reduced the antitumor activity of the drug, the effectiveness of liposomes-encapsulated Adriamycin cardiolipin complex against the murine P388 ascitic leukemia in DBA/2 mice was studied. Mice were injected i.p with 1×10^5 cells of P388 leukemia. Twenty-four hours after tumor implanation, mice were administered intraperitoneally free Adriamycin or cardiolipin complex-encapsulated liposome at a dose of 4 mg/kg. Control mice received 0.9% NaCl or blank liposomes representing the same concentration of lipids as used to encapsulate Adriamycin cardiolipin complex. All injections were made on 2% body weight basis. Mice were weighed on day of injection, doses of drugs were calculated on body weight basis, and the survival time of mice was recorded in days.
Mice weighing 20 to 25 g were given i.p. injections of 10^5 cells and 24 hours later free or cardiolipin complex-encapsulated liposome Adriamycin was administered.

[3] = pharmacokinetic studies; cited from earlier work
in vivo = conditions: mouse, iv, 4 mg/kg
Protocol: The physiologic disposition of free Adriamycin and of liposome encapsulated Adriamycin cardiolipin complex was determined in DBA/2 mice weighing 20-25 gm. Mice were injected with free Adriamycin and Adriamycin-cardiolipin complex encapsulated in liposomes via the tail vein at a dose of 4 mg/kg and at 2% body weight. At sequential time points from 5 minutes to 24 hours after drug administration, mice were bled through orbital sinus in hepanized tubes. Plasma was separated immediately and stored at -20° C. Four mice in each treatment group were killed by cervical dislocation and heart, liver, kidney, spleen, lungs and small intestine were rapidly excised, rinsed in 0.9% NaCl and stored at -20° C. until assayed.
Briefly, plasma was extracted with 5 volumes of 0.3 N HCl-50% ethanol and tissues were homogenized with 20 volumes of the acid alcohol. Plasma and tissue homogenates were centrifuged at 15,000 rpm for 10 minutes and the clear supernatant was assayed fluorometrically in a Perkin Elmer equipment at 470 nm excitation and 585 nm emission. Control tissues obtained from mice treated with blank liposomes were read similarly in the fluorometer to correct for any endogenous fluorescence. Fresh Adriamycin standards were prepared in ) 0.3 N HCl--50% ethanol each day to calculate the concentration of Adriamycin in the tissue samples.

[4] = in vivo; cited from earlier work

## COc1cccc2c1C(=O)c1c(O)c3c(c(O)c1C2=O)C[C@@](O)(C(=O)CO)C[C@@H]3O[C@H]1C[C@H](N)[C@H](O)[C@H](C)O1 [Adriamycin, doxorubicin hydrochloride]
[1]
  myocardial toxic damage by electron microscopy: loss and fragmentation of myofilaments with concomitant clearing of organelles and swelling of sarcoplasmic areas; also recorded: degenerative changes with vacuolation of the smooth endoplasmic reticulum and loss of myofibrils; also recorded: Progression of damage could be seen with greater intensity on day 7
[2]
  T/C (Treated vs. Control), survival: 132%
[3]
  uptake by heart muscle (in words): taken up avidly and preferentially by heart muscle
In vivo
  Cmax: 8300 ng/g
  Tmax: 30 min
[4]
  cumulative dose correlated with cumulative myocardial damage: > 500 mg/m^2

## COc1cccc2c1C(=O)c1c(O)c3c(c(O)c1C2=O)C[C@@](O)(C(C)=O)C[C@@H]3O[C@H]1C[C@H](N)[C@H](O)[C@H](C)O1 [daunorubicin]
[4]
  cardiotoxicity (in words): cardiotoxic effects
